Article PMC11783063, “Design, synthesis, and apoptotic antiproliferative action of new benzimidazole/1,2,3-triazole hybrids as EGFR inhibitors” (Frontiers in Chemistry, 2025)

What was measured:
[1] = system: Panc-1 (pancreatic cancer cell line); experiment: Antiproliferative assay, Panc-1; format: cell-based, human; conditions: Homo sapiens, PANC-1; read-out: Antiproliferative activity IC50 ± SEM, Panc-1
Source text: (§1) Refer to Supplementary Appendix A for more information.
(§2) DMSO (0.1%) was used as control.

[2] = system: Bax; experiment: Bax activation assay in MCF-7 cells; format: cell-based, human; conditions: for Bax Conc: compound at its IC50; for Bax Fold change: vs untreated control
Protocol: The current study supplied compounds 6i and 10e to breast (MCF-7) cancer cell lines at their respective IC50 values. This led to a notable elevation of pro-apoptotic Bax expression, with a fold increase of 34 for compound 6i and 36 for compound 10e.
Compounds 6i and 10e were assessed for their ability to activate caspase-3, caspase-8, and Bax, as well as to downregulate the anti-apoptotic protein Bcl2 in the MCF-7 breast cancer cell line ([Abdelbaset et al., 2019]). Supplementary Appendix A provides more details.
Bring all reagents, except the human Bax-α Standard, to room temperature for at least 30 minutes prior to opening. The human Bax-α Standard solution should not be left at room temperature for more than 10 minutes. All standards, controls and samples should be run in duplicate. Refer to the Assay Layout Sheet to determine the number of wells to be used and put any remaining wells with the desiccant back into the pouch and seal the ziploc. Store unused wells at 4 °C. Pipet 100 μL of Assay Buffer into the S0 (0 pg/mL standard) wells. Pipet 100 μL of Standards #1 through #6 into the appropriate wells. Pipet 100 μL of the Samples into the appropriate wells. Tap the plate gently to mix the contents. Seal the plate and incubate at room temperature on a plate shaker for 1 hour at ~500 rpm. Empty the contents of the wells and wash by adding 400 μL of wash solution to every well. Repeat the wash 4 more times for a total of 5 washes. After the final wash, empty or aspirate the wells and firmly tap the plate on a lint free paper towel to remove any remaining wash buffer. Pipet 100 μL of yellow Antibody into each well, except the Blank. Seal the plate and incubate at room temperature on a plate shaker for 1 hour at ~500 rpm. Empty the contents of the wells and wash by adding 400 μL of wash solution to every well. Repeat the wash 4 more times for a total of 5 washes. After the final wash, empty or aspirate the wells and firmly tap the plate on a lint free paper towel to remove any remaining wash buffer. Add 100 μL of blue Conjugate to each well, except the Blank. Seal the plate and incubate at room temperature on a plate shaker for 30 minutes at ~500 rpm. Empty the contents of the wells and wash by adding 400 μL of wash solution to every well. Repeat the wash 4 more times for a total of 5 washes. After the final wash, empty or aspirate the wells and firmly tap the plate on a lint free paper towel to remove any remaining wash buffer. Pipet 100 μL of Substrate Solution into each well. Incubate for 30 minutes at room temperature on a plate shaker at ~500 rpm. Pipet 100 μL Stop Solution to each well. Blank the plate reader against the Blank wells, read the optical density at 450 nm. Calculate the average net Optical Density (OD) bound for each standard and sample by subtracting the average Blank OD from the average OD for each standard and sample. Using linear graph paper, plot the Average Net OD for each standard versus Bax concentration in each standard. Approximate a straight line through the points. The concentration of Bax in the unknowns can be determined by interpolation.

[3] = system: caspase-8; experiment: Caspase-8 activation assay in MCF-7 cells; format: cell-based, human; conditions: for Caspase-8 Conc: compound at its IC50 concentration; for Caspase-8 Fold change: vs untreated control
Protocol: (§3) Cells experience apoptosis in reaction to specific signaling cues, resulting in significant modifications. […] They decompose vital cellular components, including nuclear proteins, such as DNA repair enzymes and structural proteins within the cytoskeleton, essential for optimal cellular function.
(§4) Supplementary Appendix A provides more details.
The absorbance of each microwell was read on a spectrophotometer at 450 nm. A standard curve is prepared from 7human Caspase-8 standard dilutions and human Caspase-8 concentration determined.

[4] = system: A-549 (lung cancer cell line); experiment: Antiproliferative assay, A-549; format: cell-based, human; conditions: Homo sapiens, A549; read-out: Antiproliferative activity IC50 ± SEM, A-549
Source text: as §1, §2

[5] = system: MCF-7 (breast cancer cell line); experiment: Antiproliferative assay, MCF-7; format: cell-based, human; conditions: Homo sapiens, MCF7; read-out: Antiproliferative activity IC50 ± SEM, MCF-7
Source text: as §1, §2

[6] = system: HT-29 (colon cancer cell line); experiment: Antiproliferative assay, HT-29; format: cell-based, human; conditions: Homo sapiens, read-out: Antiproliferative activity IC50 ± SEM, HT-29
Source text: as §1, §2

[7] = Cell viability assay (MTT) on MCF-10A normal cells; conditions: human, MCF-10A normal mammary gland epithelial cells
Protocol: (§5) The medium in which cells were propagated contained Dulbecco's modified Eagle's medium (DMEM)/ Ham's F-12 medium (1:1) supplemented with epidermal growth factor (20 ng/mL), hydrocortisone (500 ng/mL), insulin (10 μg/mL), 2 mM glutamine and 10% foetal calf serum. After every 2-3 days, the cells were passed using trypsin ethylenediamine tetra acetic acid (EDTA). The cells were seeded at a density of 10^4 cells mL^-1 in flat-bottomed culture plates containing 96 wells each. After 24 h, medium was removed from the plates and the compounds in (in 0.1% DMSO) were added (in 200 μL medium to yield a final concentration of 0.1% v/v) to the wells of plates. A single compound was designated with four wells followed by incubation of plates for 96h at 37°C. After incubation, medium was removed completely from the plates followed by addition of MTT (0.4 mg/mL in medium) to each well and subsequent incubation of plates for 3h. MTT (along with the medium) was removed and DMSO (150μL) was added to each well of the culture plates, followed by vortexing and subsequent measurement of absorbance (at 540 nm) using microplate reader.

[8] = system: MCF-10A normal human mammary gland epithelial cell line; experiment: Cell viability assay (MTT) on MCF-10A normal cells; conditions: dose of 50 μM
Protocol: as §5

[9] = system: caspase-3; experiment: Caspase-3 activation assay in MCF-7 cells; format: cell-based, human; conditions: for Caspase-3 Conc: compound at its IC50 concentration; for Caspase-3 Fold change: vs untreated control
Source text: as §3, §4
Allow all reagents to reach room temperature before use. Gently mix all liquid reagents prior to use. Determine the number of 8-well strips needed for the assay. Insert these in the frame(s) for current use. Add 100 μl of the Standard Diluent Buffer to the zero standard wells. Well(s) reserved for chromogen blank should be left empty. Add 100 μl of standards and controls or diluted samples to the appropriate microtiter wells. The sample dilution chosen should be optimized for each experimental system. Tap gently on the side of plate to mix. Cover wells with plate cover and incubate for 2 hours at room temperature. Thoroughly aspirate or decant solution from wells and discard the liquid, Wash wells 4 times. […] Tap gently on the side of the plate to mix. Cover plate with plate cover and incubate for 1 hour at room temperature. Thoroughly aspirate or decant solution from wells and discard the liquid, Wash wells 4 times. Add 100 μl Anti-Rabbit IgG HRP Working Solution to each well except the chromogen blank(s). Prepare the working dilution as described in Preparing IgG HRP. Cover wells with the plate cover and incubate for 30 minutes at room temperature. Thoroughly aspirate or decant solution from wells and discard the liquid. Wash wells 4 times. Add 100 μl of Stabilized Chromogen to each well. The liquid in the wells will begin to turn blue. Incubate for 30 minutes at room temperature and in the dark. The incubation time for chromogen substrate is often determined by the microtiter plate reader used. […] The O.D. values should be monitored, and the substrate reaction stopped before the O.D. of the positive wells exceeds the limits of the instrument. The O.D. values at 450 nm can only be read after the Stop Solution has been added to each well. […] Add 100 μl of Stop Solution to each well. Tap side of plate gently to mix. The solution in the wells should change from blue to yellow. Read the absorbance of each well at 450 nm having blanked the plate reader against a chromogen blank composed of 100 μl each of Stabilized Chromogen and Stop Solution. Read the plate within 2 hours after adding the Stop Solution. Use a curve fitting software to generate the standard curve. […] Read the concentrations for unknown samples and controls from the standard curve. Multiply value(s) obtained for sample(s) by the appropriate dilution factor to correct for the dilution in step 3.

[10] = target: EGFR (Homo sapiens, UniProt P00533); experiment: EGFR-TK inhibitory assay
EGFR, sequence (P00533 669-1210): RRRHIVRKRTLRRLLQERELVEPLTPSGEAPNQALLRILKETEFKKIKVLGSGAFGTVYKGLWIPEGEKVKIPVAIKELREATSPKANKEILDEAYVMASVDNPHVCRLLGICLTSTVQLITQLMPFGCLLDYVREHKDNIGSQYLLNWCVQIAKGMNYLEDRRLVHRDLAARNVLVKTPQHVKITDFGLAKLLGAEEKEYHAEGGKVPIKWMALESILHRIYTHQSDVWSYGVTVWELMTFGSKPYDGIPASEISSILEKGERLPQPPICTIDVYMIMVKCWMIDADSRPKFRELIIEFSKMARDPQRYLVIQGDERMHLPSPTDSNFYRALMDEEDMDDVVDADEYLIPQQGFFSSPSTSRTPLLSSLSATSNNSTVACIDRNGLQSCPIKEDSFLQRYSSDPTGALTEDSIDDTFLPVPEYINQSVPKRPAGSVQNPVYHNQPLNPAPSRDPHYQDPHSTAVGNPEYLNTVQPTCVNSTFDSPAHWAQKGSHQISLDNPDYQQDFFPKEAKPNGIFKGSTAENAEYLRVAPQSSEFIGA
Protocol: To record autophosphorylation level, EGFR kinase assay was carried out on the basis of DELFIA/Time-Resolved Fluorometry. […] Each compound (10 µL) was incubated with recombinant enzyme (10 µL, 5 ng for EGFR, 1:80 dilution in 100 mM HEPES) for 10 min at 25 °C, subsequent to the addition of 5X buffer (10 µL, containing 2 mM MnCl2, 100 µM Na3VO4, 20 mM HEPES and 1 mM DTT) and ATP-MgCl2 (20 µL, containing 0.1 mM ATP and 50 mM MgCl2) and incubation for 1h. The negative and positive controls were included in each plate by the incubation of enzyme either with or without ATP-MgCl2. The liquid was removed after incubation and the plates were washed thrice using wash buffer. Europium-tagged antiphosphotyrosine antibody (75 µL, 400 ng) was added to each well followed by incubation of 1h and then washing of the plates using buffer. […] The autophosphorylation percentage inhibition by compounds was calculated using the following equation:

O=[N+]([O-])c1cccc(-n2cc(Cn3c(SCc4ccccc4)nc4ccccc43)nn2)c1 [10e]
IC50 [1]: 26 ± 2 nM | Bax Conc [2]: 325 ± 3 pg/mL | Bax Fold change [2]: 36 | Caspase-8 Conc [3]: 1.75 ± 0.15 ng/mL | Caspase-8 Fold change [3]: 19 | IC50 [4]: 26 ± 2 nM | IC50 [5]: 24 ± 2 nM | IC50 [6]: 25 ± 2 nM | viability at 4 days, 50 µM [7]: 90% | Impact on non-tumor cells MCF-10A [8]: no impact | Caspase-3 Conc [9]: 778 ± 6 pg/mL | Caspase-3 Fold change [9]: 12 | IC50 [10]: 73 ± 4 nM

NS(=O)(=O)c1ccc(-n2cc(CSc3nc4ccccc4[nH]3)nn2)cc1 [6i, 4-(4-(((1H-benzimidazol-2-yl)thio)methyl)-1H-1,2,3-triazol-1-yl)benzene-sulfonamide]
IC50 [1]: 28 ± 2 nM | Bax Conc [2]: 310 ± 3 pg/mL | Bax Fold change [2]: 34 | Caspase-8 Conc [3]: 1.60 ± 0.20 ng/mL | Caspase-8 Fold change [3]: 18 | IC50 [4]: 30 ± 2 nM | IC50 [5]: 28 ± 2 nM | IC50 [6]: 30 ± 2 nM | viability at 4 days, 50 µM [7]: 90% | Impact on non-tumor cells MCF-10A [8]: no impact | Caspase-3 Conc [9]: 590 ± 5 pg/mL | Caspase-3 Fold change [9]: 9 | IC50 [10]: 78 ± 5 nM
